Test results from patent US20240279278A1, “NMU RECEPTOR 2 AGONISTS” (Boehringer Ingelheim International GmbH, priority 2023, published 2024).
Starred links: 1 amine or outer side, 2 acyl side, 3 side chain; linkers in the order of their positions; H or OH if unused. Non-standard residues stand in square brackets, D forms with d. Residues, ends and D or L forms follow the SMILES beside them. *: point of attachment. Pipz(1-CH2CO,4-CH2CH2NH) = O=C(CN1CCN(CCN[*:1])CC1)[*:2]; C18 diacid = O=C(O)CCCCCCCCCCCCCCCCC(=O)*; γGlu = O=C(O)[C@H](CCC(=O)[*:2])N[*:1]; 2Pal = N[C@@H](Cc1ccccn1)C(=O)O; NMeL = CN[C@@H](CC(C)C)C(=O)O; NMeA = CN[C@@H](C)C(=O)O; Nle = CCCC[C@H](N)C(=O)O; Sar = CNCC(=O)O

How the values were obtained:
Assay type in all cases: cell-based
human NMUR2 receptor [1] = target: T1, human NMUR2 receptor (Homo sapiens, UniProt Q9GZQ4); assay: IP1 Gq HTRF assay, activation of human NMUR2 in buffer; design: expressed in transfected cells; host or cells: CHO-K1; conditions: CHO-K1 cells expressing human NMUR2, stimulation buffer with 0.1% BSA; read-out: EC50 (hNMUR2) buffer
Procedure, shortened: (§1)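 IP-One HTRF competition (665/620 nm ratio) read after 1 h agonist exposure at 37 °C in pH 7.4 HEPES/HBSS stimulation buffer containing 50 mM LiCl, 0.1% BSA, 1% DMSO. Cells: CHO-K1 stably expressing human NMUR2 or NMUR1. EC50 by 4-parameter nonlinear regression of 8-point curves.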

human NMUR2 receptor [2] = target: T1, human NMUR2 receptor; assay: IP1 Gq HTRF assay, activation of human NMUR2 in human plasma; design: expressed in transfected cells; host or cells: CHO-K1; conditions: CHO-K1 cells expressing human NMUR2, 100% human plasma; read-out: EC50 (hNMUR2) human plasma
Procedure, shortened: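 EC50 obtained via 4-parameter sigmoidal regression of HTRF IP-One signal (665 nm/620 nm), which falls as intracellular IP1 rises. Stimulation: 1 h, 37° C, peptides in human plasma plus 50 mM LiCl, 1% DMSO final, on NMUR2-expressing CHO-K1 cells, 8 concentrations.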

human NMUR1 receptor = target: T2, human NMUR1 receptor (Homo sapiens, UniProt Q9HB89); assay: IP1 Gq HTRF assay, activation of human NMUR1 in buffer; conditions: CHO-K1 cells expressing human NMUR1, stimulation buffer with 0.1% BSA; read-out: EC50 (hNMUR1) buffer
T2 construct: expressed in transfected cells; host or cells: CHO-K1
T2 sequence (Q9HB89 1-426): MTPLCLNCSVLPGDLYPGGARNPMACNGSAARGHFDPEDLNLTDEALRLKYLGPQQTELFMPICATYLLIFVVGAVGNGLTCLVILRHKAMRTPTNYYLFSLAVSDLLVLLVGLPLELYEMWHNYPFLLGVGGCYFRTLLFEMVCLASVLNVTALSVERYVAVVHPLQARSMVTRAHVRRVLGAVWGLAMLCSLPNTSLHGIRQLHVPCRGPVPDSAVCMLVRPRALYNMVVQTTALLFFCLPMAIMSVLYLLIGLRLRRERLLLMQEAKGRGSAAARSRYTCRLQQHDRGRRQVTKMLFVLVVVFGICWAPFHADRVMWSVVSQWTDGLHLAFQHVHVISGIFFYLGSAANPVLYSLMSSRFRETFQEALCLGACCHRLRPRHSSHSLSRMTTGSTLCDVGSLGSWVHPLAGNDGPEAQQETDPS
Procedure, shortened: as §1

T1 sequence (Q9GZQ4 whole entry): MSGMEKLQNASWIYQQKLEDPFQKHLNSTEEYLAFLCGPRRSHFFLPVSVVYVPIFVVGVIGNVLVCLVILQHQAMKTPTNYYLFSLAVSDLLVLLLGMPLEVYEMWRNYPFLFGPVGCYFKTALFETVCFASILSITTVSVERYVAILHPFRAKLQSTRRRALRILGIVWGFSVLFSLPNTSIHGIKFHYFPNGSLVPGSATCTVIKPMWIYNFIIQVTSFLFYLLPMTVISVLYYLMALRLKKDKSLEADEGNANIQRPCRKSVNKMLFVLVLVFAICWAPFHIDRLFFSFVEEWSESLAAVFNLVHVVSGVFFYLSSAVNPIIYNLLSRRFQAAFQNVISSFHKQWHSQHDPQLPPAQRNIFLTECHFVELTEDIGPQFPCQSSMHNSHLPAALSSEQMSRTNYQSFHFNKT

SMILES	EC50 (human NMUR2 receptor [1])	EC50 (human NMUR2 receptor [2])	EC50 (human NMUR1 receptor)
CCCC[C@H](NC(=O)[C@H](CC(C)C)N(C)C(=O)[C@H](Cc1ccccc1)NC(=O)[C@H](Cc1ccc(O)cc1)NC(=O)CN1CCN(CCNC(=O)CN(C)C(=O)CN(C)C(=O)CN(C)C(=O)CN(C)C(=O)CN(C)C(=O)CN(C)C(=O)CN(C)C(=O)CN(C)C(=O)CN(C)C(=O)CN(C)C(=O)CN(C)C(=O)CN(C)C(=O)CN(C)C(=O)CN(C)C(=O)CN(C)C(=O)CC[C@H](NC(=O)CC[C@H](NC(=O)CC[C@H](NC(=O)CCCCCCCCCCCCCCCCC(=O)O)C(=O)O)C(=O)O)C(=O)O)CC1)C(=O)N[C@@H](CCCCN)C(=O)N1CCC[C@H]1C(=O)N[C@@H](CCCNC(=N)N)C(=O)NCC(N)=O [Compound 46, C18DA-gGlu3-Sar15-AEPipAc-Tyr-Phe-NMeLeu-Nle-Lys-Pro-Arg-Gly-NH2] (HELM PEPTIDE1{[O=C(O)CCCCCCCCCCCCCCCCC(=O)[*:2]].[gGlu].[gGlu].[gGlu].[Sar].[Sar].[Sar].[Sar].[Sar].[Sar].[Sar].[Sar].[Sar].[Sar].[Sar].[Sar].[Sar].[Sar].[Sar].[O=C(CN1CCN(CCN[*:1])CC1)[*:2]].Y.F.[meL].[Nle].K.P.R.G.[am]}$$$$V2.0)	13 nM	26.2 nM	> 1000 nM
CCCC[C@H](NC(=O)[C@H](CC(C)C)N(C)C(=O)[C@H](Cc1ccccc1)NC(=O)[C@H](Cc1ccc(O)cc1)NC(=O)CN1CCN(CCNC(=O)CN(C)C(=O)CN(C)C(=O)CN(C)C(=O)CN(C)C(=O)CN(C)C(=O)CN(C)C(=O)CN(C)C(=O)CN(C)C(=O)CN(C)C(=O)CN(C)C(=O)CN(C)C(=O)CN(C)C(=O)CN(C)C(=O)CN(C)C(=O)CN(C)C(=O)CC[C@H](NC(=O)CC[C@H](NC(=O)CC[C@H](NC(=O)CCCCCCCCCCCCCCCCC(=O)O)C(=O)O)C(=O)O)C(=O)O)CC1)C(=O)N[C@@H](CCCCN)C(=O)N(C)[C@@H](C)C(=O)N[C@@H](CCCNC(=N)N)C(=O)NCC(N)=O [Compound 47, C18DA-gGlu3-Sar15-AEPipAc-Tyr-Phe-NMeLeu-Nle-Lys-NMeAla-Arg-Gly-NH2] (HELM PEPTIDE1{[O=C(O)CCCCCCCCCCCCCCCCC(=O)[*:2]].[gGlu].[gGlu].[gGlu].[Sar].[Sar].[Sar].[Sar].[Sar].[Sar].[Sar].[Sar].[Sar].[Sar].[Sar].[Sar].[Sar].[Sar].[Sar].[O=C(CN1CCN(CCN[*:1])CC1)[*:2]].Y.F.[meL].[Nle].K.[meA].R.G.[am]}$$$$V2.0)	9.3 nM	32.6 nM	> 1000 nM
CCCC[C@H](NC(=O)[C@H](CC(C)C)N(C)C(=O)[C@H](Cc1ccccc1)NC(=O)[C@H](Cc1ccc(O)cc1)NC(=O)CN1CCN(CCNC(=O)CN(C)C(=O)CN(C)C(=O)CN(C)C(=O)CN(C)C(=O)CN(C)C(=O)CN(C)C(=O)CN(C)C(=O)CN(C)C(=O)CN(C)C(=O)CN(C)C(=O)CN(C)C(=O)CN(C)C(=O)CN(C)C(=O)CN(C)C(=O)CN(C)C(=O)CC[C@H](NC(=O)CC[C@H](NC(=O)CC[C@H](NC(=O)CCCCCCCCCCCCCCCCC(=O)O)C(=O)O)C(=O)O)C(=O)O)CC1)C(=O)N[C@@H](Cc1ccccn1)C(=O)N(C)[C@@H](C)C(=O)N[C@@H](CCCNC(=N)N)C(=O)NCC(N)=O [Compound 48, C18DA-gGlu3-Sar15-AEPipAc-Tyr-Phe-NMeLeu-Nle-2Pal-NMeAla-Arg-Gly-NH2] ({C18 diacid-γGlu-γGlu-γGlu}-[Sar][Sar][Sar][Sar][Sar][Sar][Sar][Sar][Sar][Sar][Sar][Sar][Sar][Sar][Sar][Pipz(1-CH2CO,4-CH2CH2NH)]YF[NMeL][Nle][2Pal][NMeA]RG-NH2)	> 1000 nM	> 1000 nM	> 1000 nM
CCCC[C@H](NC(=O)[C@H](CC(C)C)N(C)C(=O)[C@H](Cc1ccccc1)NC(=O)[C@H](Cc1ccc(O)cc1)NC(=O)CN1CCN(CCNC(=O)CN(C)C(=O)CN(C)C(=O)CN(C)C(=O)CN(C)C(=O)CN(C)C(=O)CN(C)C(=O)CN(C)C(=O)CN(C)C(=O)CN(C)C(=O)CN(C)C(=O)CN(C)C(=O)CN(C)C(=O)CN(C)C(=O)CN(C)C(=O)CN(C)C(=O)CC[C@H](NC(=O)CC[C@H](NC(=O)CC[C@H](NC(=O)CCCCCCCCCCCCCCCCCCC(=O)O)C(=O)O)C(=O)O)C(=O)O)CC1)C(=O)N[C@@H](CCCCN)C(=O)N1CCC[C@H]1C(=O)N[C@@H](CCCNC(=N)N)C(=O)NCC(N)=O [Compound 49, C20DA-gGlu3-Sar15-AEPipAc-Tyr-Phe-NMeLeu-Nle-Lys-Pro-Arg-Gly-NH2] (HELM PEPTIDE1{[O=C(O)CCCCCCCCCCCCCCCCCCC(=O)[*:2]].[gGlu].[gGlu].[gGlu].[Sar].[Sar].[Sar].[Sar].[Sar].[Sar].[Sar].[Sar].[Sar].[Sar].[Sar].[Sar].[Sar].[Sar].[Sar].[O=C(CN1CCN(CCN[*:1])CC1)[*:2]].Y.F.[meL].[Nle].K.P.R.G.[am]}$$$$V2.0)	11 nM	25.2 nM	1300 nM
CCCC[C@H](NC(=O)[C@H](CC(C)C)N(C)C(=O)[C@H](Cc1ccccc1)NC(=O)[C@H](Cc1ccc(O)cc1)NC(=O)CN1CCN(CCNC(=O)CN(C)C(=O)CN(C)C(=O)CN(C)C(=O)CN(C)C(=O)CN(C)C(=O)CN(C)C(=O)CN(C)C(=O)CN(C)C(=O)CN(C)C(=O)CN(C)C(=O)CN(C)C(=O)CN(C)C(=O)CN(C)C(=O)CN(C)C(=O)CN(C)C(=O)CC[C@H](NC(=O)CC[C@H](NC(=O)CC[C@H](NC(=O)CCCCCCCCCCCCCCCCCCC(=O)O)C(=O)O)C(=O)O)C(=O)O)CC1)C(=O)N[C@@H](CCCCN)C(=O)N(C)[C@@H](C)C(=O)N[C@@H](CCCNC(=N)N)C(=O)NCC(N)=O [Compound 50, C20DA-gGlu3-Sar15-AEPipAc-Tyr-Phe-NMeLeu-Nle-Lys-NMeAla-Arg-Gly-NH2] (HELM PEPTIDE1{[O=C(O)CCCCCCCCCCCCCCCCCCC(=O)[*:2]].[gGlu].[gGlu].[gGlu].[Sar].[Sar].[Sar].[Sar].[Sar].[Sar].[Sar].[Sar].[Sar].[Sar].[Sar].[Sar].[Sar].[Sar].[Sar].[O=C(CN1CCN(CCN[*:1])CC1)[*:2]].Y.F.[meL].[Nle].K.[meA].R.G.[am]}$$$$V2.0)	23 nM	69.9 nM	> 1000 nM
CCCC[C@H](NC(=O)[C@H](CC(C)C)N(C)C(=O)[C@H](Cc1ccccc1)NC(=O)[C@H](Cc1ccc(O)cc1)NC(=O)CN1CCN(CCNC(=O)CN(C)C(=O)CN(C)C(=O)CN(C)C(=O)CN(C)C(=O)CN(C)C(=O)CN(C)C(=O)CN(C)C(=O)CN(C)C(=O)CN(C)C(=O)CN(C)C(=O)CN(C)C(=O)CN(C)C(=O)CN(C)C(=O)CN(C)C(=O)CN(C)C(=O)CC[C@H](NC(=O)CC[C@H](NC(=O)CC[C@H](NC(=O)CCCCCCCCCCCCCCCCC(=O)O)C(=O)O)C(=O)O)C(=O)O)CC1)C(=O)N[C@@H](Cc1c[nH]cn1)C(=O)N1CCC[C@H]1C(=O)N[C@@H](CCCNC(=N)N)C(=O)NCC(N)=O [Compound 51, C18DA-gGlu3-Sar15-AEPipAc-Tyr-Phe-NMeLeu-Nle-His-Pro-Arg-Gly-NH2] (HELM PEPTIDE1{[O=C(O)CCCCCCCCCCCCCCCCC(=O)[*:2]].[gGlu].[gGlu].[gGlu].[Sar].[Sar].[Sar].[Sar].[Sar].[Sar].[Sar].[Sar].[Sar].[Sar].[Sar].[Sar].[Sar].[Sar].[Sar].[O=C(CN1CCN(CCN[*:1])CC1)[*:2]].Y.F.[meL].[Nle].H.P.R.G.[am]}$$$$V2.0)	19 nM	112 nM	> 1000 nM
CCCC[C@H](NC(=O)[C@H](CC(C)C)N(C)C(=O)[C@H](Cc1ccccc1)NC(=O)[C@H](Cc1ccc(O)cc1)NC(=O)CN1CCN(CCNC(=O)CN(C)C(=O)CN(C)C(=O)CN(C)C(=O)CN(C)C(=O)CN(C)C(=O)CN(C)C(=O)CN(C)C(=O)CN(C)C(=O)CN(C)C(=O)CN(C)C(=O)CN(C)C(=O)CN(C)C(=O)CN(C)C(=O)CN(C)C(=O)CN(C)C(=O)CC[C@H](NC(=O)CC[C@H](NC(=O)CC[C@H](NC(=O)CCCCCCCCCCCCCCCCC(=O)O)C(=O)O)C(=O)O)C(=O)O)CC1)C(=O)N(C)[C@@H](CCCNC(=N)N)C(=O)N1CCC[C@H]1C(=O)N[C@@H](CCCNC(=N)N)C(=O)NCC(N)=O [Compound 52, C18DA-gGlu3-Sar15-AEPipAc-Tyr-Phe-NMeLeu-Nle-NMeArg-Pro-Arg-Gly-NH2] (HELM PEPTIDE1{[O=C(O)CCCCCCCCCCCCCCCCC(=O)[*:2]].[gGlu].[gGlu].[gGlu].[Sar].[Sar].[Sar].[Sar].[Sar].[Sar].[Sar].[Sar].[Sar].[Sar].[Sar].[Sar].[Sar].[Sar].[Sar].[O=C(CN1CCN(CCN[*:1])CC1)[*:2]].Y.F.[meL].[Nle].[meR].P.R.G.[am]}$$$$V2.0)	1.4 nM	6.4 nM	200 nM
